Earlier results, collected in patent publication US20130045952A1, “ABA Receptor Agonists for Increased Plant Stress Resistance” (Van Andel Research Institute, priority 2011, published 2013).

Molecular target: T1, PYR1 (Arabidopsis thaliana, UniProt O49686)
T1 sequence (O49686 1-191): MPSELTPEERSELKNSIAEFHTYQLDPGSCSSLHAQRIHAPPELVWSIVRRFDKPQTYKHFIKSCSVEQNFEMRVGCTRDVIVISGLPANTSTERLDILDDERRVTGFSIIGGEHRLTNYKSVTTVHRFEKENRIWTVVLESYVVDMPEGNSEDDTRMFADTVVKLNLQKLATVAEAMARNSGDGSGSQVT
Conditions: in vivo; cited from earlier work

O=S(=O)(NCc1ccccn1)c1ccc(Br)c2ccccc12 [Pyrabactin, pyrabactin]
Activity at PYR1 in a seed germination assay: selective agonist
